Data as given in article PMC10482691, “LTP induction by structural rather than enzymatic functions of CaMKII” (Nature, 2023).
Values joined by “and” are separate entries in the source; they are usually repeats but may differ in a detail not shown here. Identical values can stand only once.

How the values were obtained:
[1] = test system: GFP–paCaMKII T286A in hippocampal neurons; assay: paCaMKII T286A photoactivation: dendritic spine growth (sLTP); format: cell-based
[2] = test system: GFP–paCaMKII F89G in hippocampal neurons; assay: paCaMKII F89G photoactivation: dendritic spine growth (sLTP); format: cell-based

SMILES | spine growth after photoactivation of paCaMKII T286A ([1]; AS283 10 μM) | dendritic spine growth after photoactivation (sheet 6c) ([1]; paCaMKII T286A + AS283, individual neurons) | spine growth after photoactivation of paCaMKII F89G ([2]; NM-PP1 10 μM) | dendritic spine growth after photoactivation (sheet 6f) ([2]; paCaMKII F89G + NMPP1, individual neurons)
NCCNc1cccc(-c2ccnc3[nH]c4ccccc4c23)c1 [AS283] | spine growth | 17.1219 and 31.801 and 10.2332 and 47.3616 and 15.5579 and 21.0974 and 9.7214 and 4.0121 and 26.179 | – | –
CC(C)(C)n1nc(Cc2cccc3ccccc23)c2c(N)ncnc21 [NM-PP1] | – | – | spine growth | 172.556 and 35.7596 and 20.47 and 19.9369 and 44.1548 and -7.983 and 10.7769 and 28.3493 and 0.9564 and -9.357 and -3.692 and 75.8167 and 167.851 and -2.441 and -1.61 and -17.673 and 155.504 and 81.1061
